The values that follow come from ChEMBL document CHEMBL1131203, “Second generation "peptoid" CCK-B receptor antagonists: identification and development of N-(adamantyloxycarbonyl)-alpha-methyl-(R)-tryptophan derivative (CI-1015) with an improved pharmacokinetic profile” (J Med Chem, 1998).

Experiment [1] concerns the target T1, Cholecystokinin receptor type A (Rattus norvegicus, UniProt P30551).
T1 sequence (P30551 whole entry): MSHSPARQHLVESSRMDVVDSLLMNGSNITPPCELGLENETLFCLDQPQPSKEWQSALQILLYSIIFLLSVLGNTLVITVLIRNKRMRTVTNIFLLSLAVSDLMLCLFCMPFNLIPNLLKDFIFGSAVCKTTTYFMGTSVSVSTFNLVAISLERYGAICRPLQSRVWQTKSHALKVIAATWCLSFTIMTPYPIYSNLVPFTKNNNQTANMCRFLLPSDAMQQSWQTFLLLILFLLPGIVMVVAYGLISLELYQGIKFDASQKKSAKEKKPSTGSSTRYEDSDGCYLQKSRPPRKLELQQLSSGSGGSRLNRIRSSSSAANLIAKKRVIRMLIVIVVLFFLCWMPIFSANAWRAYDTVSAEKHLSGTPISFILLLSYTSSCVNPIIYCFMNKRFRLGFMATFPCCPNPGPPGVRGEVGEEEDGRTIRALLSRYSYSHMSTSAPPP
Description: Inhibitory concentration against radioligand [125I]Bolton-Hunter labeled CCK-8 to cholecystokinin type A receptor in the rat pancreas.

Experiment [2] is described as follows: Ratio of IC50 towards CCK-A receptor and CCK-B receptor.
Experiment [3] deals with T2, Gastrin/cholecystokinin type B receptor (Mus musculus, UniProt P56481).
T2 sequence (P56481 whole entry): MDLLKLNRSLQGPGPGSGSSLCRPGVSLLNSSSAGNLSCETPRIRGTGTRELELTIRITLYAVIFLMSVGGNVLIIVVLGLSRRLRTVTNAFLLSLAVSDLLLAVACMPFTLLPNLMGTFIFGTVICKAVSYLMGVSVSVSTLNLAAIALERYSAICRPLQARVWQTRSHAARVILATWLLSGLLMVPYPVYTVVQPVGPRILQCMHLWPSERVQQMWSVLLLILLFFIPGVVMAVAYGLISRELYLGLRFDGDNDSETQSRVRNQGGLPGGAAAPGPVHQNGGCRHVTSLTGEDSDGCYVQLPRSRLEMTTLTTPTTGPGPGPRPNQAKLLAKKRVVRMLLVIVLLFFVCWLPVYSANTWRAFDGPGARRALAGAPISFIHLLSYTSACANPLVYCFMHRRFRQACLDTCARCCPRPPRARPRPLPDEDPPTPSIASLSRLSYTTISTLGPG
Briefly: Inhibitory concentration against radioligand [125I]Bolton-Hunter labeled CCK-8 to cholecystokinin type B receptor in the mouse cerebral cortex. The format is tissue-based.

Turning to `C[C@](Cc1c[nH]c2ccccc12)(NC(=O)OC1C2CC3CC(C2)CC1C3)C(=O)NC1CCCCC1O` (stereo partly specified), the IC50 – broadly, the concentration at which inhibition is half-maximal – in experiment [1] was 1.38 µM.
`C[C@](Cc1c[nH]c2ccccc12)(NC(=O)OC1C2CC3CC(C2)CC1C3)C(=O)NC1CC2CCC1C2` (stereo in doubt; 21) [listing 1 of 2 here]: the Ratio in experiment [2] was 18.6.
On the same count and under the same terms, the value for `C[C@](Cc1c[nH]c2ccccc12)(NC(=O)OC1C2CC3CC(C2)CC1C3)C(=O)NC1CC2CCC1C2` (stereo in doubt; 22) [listing 1 of 2 here] was 7.5.
For `COC(=O)C1(NC(=O)[C@@](C)(Cc2c[nH]c3ccccc23)NC(=O)OC2C3CC4CC(C3)CC2C4)CCCCC1` (stereo partly specified), in experiment [2], the Ratio is 10.4. The IC50 in experiment [1] is 1.99 µM; in experiment [3], 0.191 µM.
For the compound `C[C@](Cc1c[nH]c2ccccc12)(NC(=O)OC1C2CC3CC(C2)CC1C3)C(=O)NN1CCCCCC1` (stereo partly specified), the Ratio in experiment [2] worked out at 248. For the same compound, the IC50 in experiment [1] was determined as 3.04 µM; in experiment [3], 0.0122 µM.
Consider `C[C@](Cc1c[nH]c2ccccc12)(NC(=O)OC1C2CC3CC(C2)CC1C3)C(=O)NC(CC(=O)O)CC(=O)O` (stereo partly specified), for which the Ratio in experiment [2] amounted to 8.9. The IC50 in experiment [1] worked out at 15.7 µM; in experiment [3] it was 1.77 µM.
As to `C[C@](Cc1c[nH]c2ccccc12)(NC(=O)OC1C2CC3CC(C2)CC1C3)C(=O)NN1CCCCC1` (stereo partly specified), the Ratio in experiment [2] came to 194. For the same compound, the results for the IC50 in experiment [1] and in experiment [3] were 3.83 µM and 0.0197 µM, respectively.
The like results for `COC[C@H]1CCCN1NC(=O)[C@@](C)(Cc1c[nH]c2ccccc12)NC(=O)OC1C2CC3CC(C2)CC1C3` (stereo partly specified) were, in that order, 1370, 3.43 µM and 0.0025 µM.
`C[C@](Cc1c[nH]c2ccccc12)(NC(=O)OC1C2CC3CC(C2)CC1C3)C(=O)NN1CCCC1` (stereo partly specified): the Ratio in experiment [2] came to 82. For the same compound, the IC50 in experiment [1] was found to be 10.8 µM; in experiment [3], 0.132 µM.
Consider `C[C@](Cc1c[nH]c2ccccc12)(NC(=O)OC1C2CC3CC(C2)CC1C3)C(=O)CNC1CCCCC1` (stereo partly specified), for which the Ratio in experiment [2] came to 10.6. The IC50 was found to be 3.33 µM in experiment [1] and 0.314 µM in experiment [3].
Regarding `C[C@](Cc1c[nH]c2ccccc12)(NC(=O)OC1C2CC3CC(C2)CC1C3)C(=O)NC1CCCCC1C(=O)O` (stereo partly specified), the Ratio in experiment [2] was determined as 708. In addition, the 50% inhibitory concentration (IC50) in experiment [1] stood at 0.701 µM; in experiment [3], 0.00099 µM.
Turning to `C[C@](Cc1c[nH]c2ccccc12)(NC(=O)OC1C2CC3CC(C2)CC1C3)C(=O)NC1CCCCC1C#N` (stereo partly specified), the Ratio in experiment [2] was determined as 429. Also, the figures for the IC50 in experiment [1] and in experiment [3] were 1.5 µM and 0.0035 µM, respectively.
On to `C[C@](Cc1c[nH]c2ccccc12)(NC(=O)OC1C2CC3CC(C2)CC1C3)C(=O)NC1CCCCCC1` (stereo partly specified), for which, in experiment [2], the Ratio came to 71. Besides, the results for the IC50 in experiment [1] and in experiment [3] were 3.23 µM and 0.0455 µM, respectively.
With `C[C@](Cc1c[nH]c2ccccc12)(NC(=O)OC1C2CC3CC(C2)CC1C3)C(=O)NC1(C(=O)O)CCCCC1` (stereo partly specified), the Ratio in experiment [2] worked out at 18.4. The IC50 is 1.53 µM in experiment [1] and 0.083 µM in experiment [3].
Turning to `C[C@](Cc1c[nH]c2ccccc12)(NC(=O)OC1C2CC3CC(C2)CC1C3)C(=O)N[C@H]1CCCCC[C@@H]1O` (stereo partly specified), the Ratio in experiment [2] turned out to be 65. The half-maximal inhibitory concentration (IC50) was 1.66 µM in experiment [1] and 0.0255 µM in experiment [3].
For `C[C@](Cc1c[nH]c2ccccc12)(NC(=O)OC1C2CC3CC(C2)CC1C3)C(=O)NC1CC2CCC1C2` (stereo in doubt; 22) [listing 2 of 2 here], the half-inhibitory concentration (IC50) worked out at 1.25 µM in experiment [1] and 0.166 µM in experiment [3].
Turning to `C[C@](Cc1c[nH]c2ccccc12)(NC(=O)OC1C2CC3CC(C2)CC1C3)C(=O)N[C@@H]1CCCCC[C@H]1O` (stereo partly specified), the Ratio in experiment [2] worked out at 267. Moreover, the figures for the IC50 in experiment [1] and in experiment [3] were 1.24 µM and 0.00465 µM, respectively.
With `C[C@](Cc1c[nH]c2ccccc12)(NC(=O)OC1C2CC3CC(C2)CC1C3)C(=O)NN1CC2CCC(CC2)C1` (stereo partly specified), the Ratio in experiment [2] is 238. For the same compound, the IC50 in experiment [1] came out at 1.56 µM; in experiment [3] it was 0.0065 µM.
For the compound `C[C@](Cc1c[nH]c2ccccc12)(NC(=O)OC1C2CC3CC(C2)CC1C3)C(=O)NC1(CO)CCCCC1` (stereo partly specified), the Ratio in experiment [2] came to 12.5. The IC50 in experiment [1] is 1.51 µM; in experiment [3] it was 0.121 µM.
Consider `C[C@](Cc1c[nH]c2ccccc12)(NC(=O)OC1C2CC3CC(C2)CC1C3)C(=O)NC1(CO)CCCC1` (stereo partly specified), for which, in experiment [2], the Ratio is 5.3. In addition, the IC50 in experiment [1] came to 1.42 µM; in experiment [3] it was 0.268 µM.
In the case of `C[C@](Cc1c[nH]c2ccccc12)(NC(=O)OC1C2CC3CC(C2)CC1C3)C(=O)NC1CCCCC1` (stereo partly specified), the Ratio in experiment [2] came out at 48. The figures for the IC50 in experiment [1] and in experiment [3] were 2.4 µM and 0.05 µM, respectively.
On to `COC(=O)CC(CC(=O)OC)NC(=O)[C@@](C)(Cc1c[nH]c2ccccc12)NC(=O)OC1C2CC3CC(C2)CC1C3` (stereo partly specified), for which, in experiment [2], the Ratio was 5.5. In addition, the figures for the IC50 in experiment [1] and in experiment [3] were 1.17 µM and 0.214 µM, respectively.
Regarding `C[C@](Cc1c[nH]c2ccccc12)(NC(=O)OC1C2CC3CC(C2)CC1C3)C(=O)NC(Cc1ccccc1)Cc1ccccc1` (stereo partly specified), in experiment [2], the Ratio was determined as 112. Also, the concentration for half-maximal inhibition (IC50) in experiment [1] is 2.24 µM; in experiment [3] it was 0.0199 µM.
For the compound `C[C@](Cc1c[nH]c2ccccc12)(NC(=O)OC1C2CC3CC(C2)CC1C3)C(=O)N[C@H]1CCCC[C@@H]1O` (stereo partly specified), the IC50 in experiment [1] is 1.94 µM.
Take `C[C@](Cc1c[nH]c2ccccc12)(NC(=O)OC1C2CC3CC(C2)CC1C3)C(=O)NC1CC2CCC1C2` (stereo in doubt; 21) [listing 2 of 2 here]: the IC50 in experiment [1] worked out at 1.46 µM; in experiment [3] it was 0.0785 µM.
Regarding `COC[C@@H]1CCCN1NC(=O)[C@@](C)(Cc1c[nH]c2ccccc12)NC(=O)OC1C2CC3CC(C2)CC1C3` (stereo partly specified), in experiment [2], the Ratio came out at 105. The results for the IC50 in experiment [1] and in experiment [3] were 6.9 µM and 0.0654 µM, respectively.
On the same counts, the results for `CC1CCCCC1NC(=O)[C@@](C)(Cc1c[nH]c2ccccc12)NC(=O)OC1C2CC3CC(C2)CC1C3` (stereo partly specified) are 71.4, 2.78 µM and 0.039 µM.
